Test results: patent US11180484B2, “Pyrazole derivatives as plasma kallikrein inhibitors” (KALVISTA PHARMACEUTICALS LIMITED, priority 2016, dated 2021)
Values after ≈ are worked out from the molar mass of the structure shown. Read-outs that look alike come from different tables or passages of the source.

Tests used:
[1] = Solubility in water and 0.1N HCl (aq); assay type: physicochemical; conditions: thermodynamic from solid, incubated at 1 mg/mL, 37° C.
Method: Solubility was determined in water and 0.1N HCl (aq). Test compounds were incubated at 1 mg/mL for 24 hrs at 37° C. on a shaking platform (500 rpm). Samples were taken at 1, 4 and 24 hrs and centrifuged at 15,000 g for 10 min. Test compound concentration in the supernatant was determined by LCMS against a standard curve.

[2] = molecular target: T1, Human plasma kallikrein (Homo sapiens (Human), UniProt P03952); assay: Determination of the IC50 for plasma kallikrein; assay type: biochemical; conditions: 25° C., substrate H-DPro-Phe-Arg-AFC; read-out: IC50 (human PKal)
Method: Human plasma kallikrein (Protogen) was incubated at 25° C. with the fluorogenic substrate H-DPro-Phe-Arg-AFC and various concentrations of the test compound. Residual enzyme activity (initial rate of reaction) was determined by measuring the change in […] at 410 nm and the IC50 value for the test compound was determined.

[3] = molecular target: T1, Human plasma kallikrein; assay: Determination of the Ki for plasma kallikrein (mixed-model inhibition); assay type: biochemical; conditions: for Ki: human plasma kallikrein, mixed-model inhibition equation; for Alpha: parameter of the mixed-model equation indicating mechanism of inhibition
Method: Plasma kallikrein inhibitory activity in vitro was determined using standard published methods (e.g. Johansen et al., Int. J. Tiss. Reac. 1986, 8, 185; Shori et al., Biochem. Pharmacol., 1992, 43, 1209; Sturzebecher et al., Biol. Chem. Hoppe-Seyler, 1992, 373, 1025). […]. Residual enzyme activity (initial rate of reaction) was determined by measuring the change in fluorescence at 410 nm. The Ki value for the test compound was determined using the mixed-model inhibition equation (based on Equation 3.2 in: RA Copeland, Evaluation of Enzyme Inhibitors in Drug Discovery, Wiley 2005) in GraphPad Prism. The mixed model equation includes competitive, uncompetitive and noncompetitive inhibition as special cases and the parameter of Alpha to indicate mechanism of inhibition.

[4] = Predicted plasma clearance (Clp), well-stirred model, human; assay type: in vitro ADME; conditions: percentage of hepatic blood flow
Method: (§1) The predicted plasma clearance (Clp) is calculated using the well-stirred model (Rowland M, Benet L Z, and Graham G G. Clearance concepts in pharmacokinetics. J Pharmacokinet Biopharm. (1973) 1:123-136.), one of several models that can be used to extrapolate the in vitro data. The model assumes instantaneous and complete mixing of drug within the liver and is a function of intrinsic clearance, hepatic blood flow and free fraction of drug in the blood. The predicted plasma clearance in mL/min/kg is presented as a percentage of hepatic blood flow (LBF).

[5] = Plasma protein binding (PPB), rapid equilibrium dialysis, rat plasma; assay type: in vitro ADME; conditions: 5 μM test compound, dialysis 5 hrs at 37° C.
Method: The fraction unbound in plasma was determined using ThermoScientific™ Pierce™ Rapid Equilibrium Dialysis Technology (Single-Use plate with inserts, 8K MWCO). 5 μM test compound was spiked into human or rat plasma (300 μL) and dialysed against 146.5 mM phosphate buffer (500 μL) for 5 hrs at 37° C., shaking at 1200 rpm. Reference samples from the non-dialysed plasma were taken before the incubation to enable an assessment of recovery. Test compound concentrations were determined in plasma and buffer compartments by LCMS against a calibration curve. The fraction unbound in plasma was determined using standard methodology (Waters N J et al (2008) J Pharm Sci 97(10); 4586-95). Results are presented as percent plasma protein bound (% PPB).

[6] = molecular target: Human KLK1 (Homo sapiens (Human), UniProt P06870); assay: Determination of the IC50 for KLK1; assay type: biochemical; conditions: 25° C., substrate H-DVal-Leu-Arg-AFC
Method: Human KLK1 (Callbiochem) was incubated at 25° C. with the fluorogenic substrate H-DVal-Leu-Arg-AFC and various concentrations of the test compound. Residual enzyme activity (initial rate of reaction) was determined by measuring the change in […] at 410 nm and the IC50 value for the test compound was determined.

[7] = molecular target: Human Factor XIIa (Homo sapiens (Human), UniProt P00748); assay: Factor XIIa inhibitory activity in vitro; assay type: biochemical; conditions: 25° C., substrate H-DPro-Phe-Arg-AFC; read-out: IC50 (human FXIIa)
Method: Human Factor XIIa (Enzyme Research Laboratories) was incubated at 25° C. with the fluorogenic substrate H-DPro-Phe-Arg-AFC and various concentrations of the test compound. Residual enzyme activity (initial rate of reaction) was determined by measuring the change in […] at 410 nm and the IC50 value for the test compound was determined.

[8] = molecular target: Human FXIa (Homo sapiens (Human), UniProt P03951); assay: Determination of the % inhibition / IC50 for FXIa; assay type: biochemical; conditions: for IC50: 25° C., substrate Z-Gly-Pro-Arg-AFC; for inhibition at 40 µM: read-out: % Inhibition @ 40 μM (human FXIa)
Method: FXIa inhibitory activity in vitro was determined using standard published methods (see e.g. Johansen et al., Int. J. Tiss. Reac. 1986, 8, 185; Shori et al., Biochem. Pharmacol., 1992, 43, 1209; Sturzebecher et al., Biol. Chem. Hoppe-Seyler, 1992, 373, 1025). […]

[9] = Predicted plasma clearance (Clp), well-stirred model, rat; assay type: in vitro ADME; conditions: percentage of hepatic blood flow
Method: as §1

[10] = Plasma protein binding (PPB), rapid equilibrium dialysis, human plasma; assay type: in vitro ADME; conditions: 5 μM test compound, dialysis 5 hrs at 37° C.
Method: The fraction unbound in plasma was determined using ThermoScientific™ Pierce™ Rapid Equilibrium Dialysis Technology (Single-Use plate with inserts, 8K MWCO). […] Reference samples from the non-dialysed plasma were taken before the incubation to enable an assessment of recovery. Test compound concentrations were determined in plasma and buffer compartments by LCMS against a calibration curve. […] Results are presented as percent plasma protein bound (% PPB).

[11] = Pharmacokinetics following a single oral dose in male Sprague-Dawley rats; assay type: in vivo; conditions: rat, single po dose (nominal 10 mg/kg; actual dose per row in column Dose po), 10% DMSO/10% cremophor/80% SWFI, plasma
Method: Pharmacokinetic studies of the compounds in Table 13 were performed to assess the pharmacokinetics following a single oral dose in male Sprague-Dawley rats. Two rats were given a single po dose of 5 mL/kg of a nominal 2 mg/mL (10 mg/kg) composition of test compound in vehicle. Following dosing, blood samples were collected over a period of 24 hours. Sample times were 5, 15 and 30 minutes then 1, 2, 4, 6, 8 and 12 hours. Following collection, blood samples were centrifuged and the plasma fraction analysed for concentration of test compound by LCMS.

[12] = Intrinsic clearance in rat liver microsomes; assay type: in vitro ADME; conditions: rat liver microsomes 0.5 mg/mL, 5 μM test compound, 37° C.; read-out: rat liver microsome (Clint μL/min/mg protein)
Method: (§2) Rat or human liver microsomes (0.5 mg/mL; Corning) were incubated with 5 μM test compound at 37° C. on a shaking platform (150 rpm). Samples were taken at 0, 6, 12, 18, 24 and 60 min and test compound concentrations were determined by LCMS against a calibration curve.

[13] = In vitro permeability, Caco-2 model for oral absorption; assay type: in vitro ADME; conditions: human, apical to basolateral, 50 μM test compound, 37° C.
Method: In vitro permeability was determined using the Caco-2 model for oral absorption. The methodology was adapted from standard published methods (Wang Z, Hop C. E., Leung K. H. and Pang J. (2000) J Mass Spectrom 35(1); 71-76). The Caco-2 monolayers were established in a Biocoat™ HTS fibrillar collagen 24 well multiwell insert system (1.0 μm, PET membrane, Corning 354803) in which 200,000 cells were seeded into each insert and maintained over 3 days before being utilised in the permeability assay. For the assay, 50 μM test compound is added to the apical side of the inserts and incubated for 1 hour at 37° C. on a shaking platform (120 rpm). Apical to basolateral transport was determined by measuring the test article in both compartments by LCMS following the 1 hour incubation. The integrity of the Caco-2 monolayers was confirmed by two methods, (i) comparison of pre- and post-experiment transepithelial electrical resistance (TEER) and, (ii) assessment of Lucifer Yellow flux.

[14] = Intrinsic clearance in human liver microsomes; assay type: in vitro ADME; conditions: human liver microsomes 0.5 mg/mL, 5 μM test compound, 37° C.; read-out: Human liver microsome (Clint μL/min/mg protein)
Method: as §2

T1 sequence (P03952 391-638): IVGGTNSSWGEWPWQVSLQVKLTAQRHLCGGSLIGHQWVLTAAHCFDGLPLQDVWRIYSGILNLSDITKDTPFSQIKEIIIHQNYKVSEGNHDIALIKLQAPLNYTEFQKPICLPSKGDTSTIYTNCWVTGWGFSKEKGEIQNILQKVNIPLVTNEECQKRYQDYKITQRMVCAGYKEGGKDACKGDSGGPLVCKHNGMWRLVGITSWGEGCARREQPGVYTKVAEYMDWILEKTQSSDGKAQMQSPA
T1 sequence (P03952 20-390): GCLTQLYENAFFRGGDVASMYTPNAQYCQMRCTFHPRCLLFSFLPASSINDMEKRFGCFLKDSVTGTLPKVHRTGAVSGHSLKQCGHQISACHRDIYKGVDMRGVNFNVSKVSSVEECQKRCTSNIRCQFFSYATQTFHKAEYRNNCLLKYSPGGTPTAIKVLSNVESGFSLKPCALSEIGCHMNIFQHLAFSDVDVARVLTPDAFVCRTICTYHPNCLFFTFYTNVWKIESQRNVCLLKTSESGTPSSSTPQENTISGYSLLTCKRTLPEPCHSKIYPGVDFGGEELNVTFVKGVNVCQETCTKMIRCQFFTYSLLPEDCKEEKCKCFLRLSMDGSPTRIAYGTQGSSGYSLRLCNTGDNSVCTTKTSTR
Human Factor XIIa, sequence (P00748 373-615): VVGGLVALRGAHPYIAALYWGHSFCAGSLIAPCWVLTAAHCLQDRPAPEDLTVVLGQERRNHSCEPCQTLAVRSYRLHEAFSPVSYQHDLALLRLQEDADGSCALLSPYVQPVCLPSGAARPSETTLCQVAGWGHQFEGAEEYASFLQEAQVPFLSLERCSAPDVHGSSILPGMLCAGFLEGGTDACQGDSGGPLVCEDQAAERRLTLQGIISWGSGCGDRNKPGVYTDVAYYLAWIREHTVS
Human KLK1, sequence (P06870 25-262): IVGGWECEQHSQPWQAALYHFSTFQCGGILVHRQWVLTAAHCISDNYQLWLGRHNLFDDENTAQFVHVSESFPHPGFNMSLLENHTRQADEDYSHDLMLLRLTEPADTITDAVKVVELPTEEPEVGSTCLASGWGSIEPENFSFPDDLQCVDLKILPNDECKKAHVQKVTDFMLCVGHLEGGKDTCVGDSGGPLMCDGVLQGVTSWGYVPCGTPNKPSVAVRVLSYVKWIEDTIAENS
Human FXIa, sequence (P03951 388-625): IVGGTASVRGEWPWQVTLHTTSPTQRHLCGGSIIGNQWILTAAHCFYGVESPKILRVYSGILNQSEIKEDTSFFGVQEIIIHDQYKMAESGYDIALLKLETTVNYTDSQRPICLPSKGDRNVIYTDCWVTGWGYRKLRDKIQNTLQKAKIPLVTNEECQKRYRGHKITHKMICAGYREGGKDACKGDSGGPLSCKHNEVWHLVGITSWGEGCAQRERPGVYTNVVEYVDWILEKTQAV
Human FXIa, sequence (P03951 19-387): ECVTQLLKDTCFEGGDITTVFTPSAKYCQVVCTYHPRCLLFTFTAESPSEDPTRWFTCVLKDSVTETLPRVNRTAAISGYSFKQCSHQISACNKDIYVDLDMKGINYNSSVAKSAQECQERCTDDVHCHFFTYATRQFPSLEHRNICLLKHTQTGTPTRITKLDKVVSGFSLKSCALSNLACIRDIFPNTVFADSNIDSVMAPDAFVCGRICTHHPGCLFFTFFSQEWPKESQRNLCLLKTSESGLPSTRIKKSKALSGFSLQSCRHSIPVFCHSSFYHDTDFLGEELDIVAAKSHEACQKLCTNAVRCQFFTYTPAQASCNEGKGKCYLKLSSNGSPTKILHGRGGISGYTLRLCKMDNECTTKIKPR

Compound	solubility ([1]; simulated gastric fluid, 0.1N HCl (aq), read-out: Solubility 0.1N HCl (aq))	solubility ([1]; water, read-out: Solubility Water)	IC50 [2]	Ki [3]	Alpha [3]	Predicted in vivo human Clp (% LBF) [4]	fraction unbound at 5 h, 5 μM [5]	IC50 [6]	IC50 [7]	IC50 [8]	inhibition at 40 µM [8]	Predicted in vivo rat Clp (% LBF) [9]	fraction unbound at 5 h, 5 μM [10]	Cmax [11]	Tmax [11]	microsomal CLint at 5 μM [12]	Papp at 1 h, 50 μM [13]	microsomal CLint at 5 μM [14]	inhibition at 40 µM ([8]; 40 μM test compound)
COCc1nn(Cc2ccc(Cn3ccccc3=O)cc2)cc1C(=O)NCc1nccc(OC)c1C [Example 22, N-[(4-methoxy-3-methylpyridin-2-yl)methyl]-3-(methoxymethyl)-1-({4-[(2-oxopyridin-1-yl)methyl]phenyl}methyl)pyrazole-4-carboxamide]	900 µg/mL (≈ 1850 µM)	60 µg/mL (≈ 123 µM)	4.9 nM	1.9 nM	29	7 % LBF	< 0.01	> 40000 nM	> 40000 nM	> 40000 nM	5%	<1.6 % LBF	0.08	1020 ng/mL	1 h	68 µL/min/mg			
COCc1nn(Cc2ccc(N3CCCC3)nc2)cc1C(=O)NCc1c(-n2cnnn2)ccc(OC)c1F [Example 77, N-{[2-fluoro-3-methoxy-6-(1,2,3,4-tetrazol-1-yl)phenyl]methyl}-3-(methoxymethyl)-1-{[6-(pyrrolidin-1-yl)pyridin-3-yl]methyl}pyrazole-4-carboxamide]			1.4 nM	0.17 nM	4.2	3 % LBF	< 0.01	> 40000 nM	> 40000 nM	235 nM		<2.0 % LBF	0.03	845 ng/mL	1.5 h	82 µL/min/mg	28 ×10⁻⁶ cm/s	29 µL/min/mg	100%
COCc1nn(Cc2cnc(N3CCCC3)nc2)cc1C(=O)NCc1cc(OC)ccc1-n1cnnn1 [Example 80, N-{[5-methoxy-2-(1,2,3,4-tetrazol-1-yl)phenyl]methyl}-3-(methoxymethyl)-1-{[2-(pyrrolidin-1-yl)pyrimidin-5-yl]methyl}pyrazole-4-carboxamide]			10.6 nM	2.4 nM	14.8	4 % LBF	0.04	> 4000 nM	> 4000 nM	779 nM		6 % LBF	0.08			54 µL/min/mg	23 ×10⁻⁶ cm/s	14 µL/min/mg	
COCc1nn(Cc2ccc(Cn3ccccc3=O)cc2)cc1C(=O)NCc1c(F)cccc1-n1cnnn1 [Reference Example H, N-{[2-Fluoro-6-(1,2,3,4-tetrazol-1-yl)phenyl]methyl}-3-(methoxymethyl)-1-({4-[(2-oxopyridin-1-yl)methyl]phenyl}methyl)pyrazole-4-carboxamide, reference compound]			1.1 nM	0.52 nM	108	14 % LBF	0.13	> 40000 nM	> 40000 nM	> 40000 nM		26 % LBF	0.16			94 µL/min/mg	12 ×10⁻⁶ cm/s	25 µL/min/mg	
